Source: article PMC8707548, “Restoring Tumour Selectivity of the Bioreductive Prodrug PR-104 by Developing an Analogue Resistant to Aerobic Metabolism by Human Aldo-Keto Reductase 1C3” (Pharmaceuticals, 2021)

Molecular target: T1, recombinant AKR1C3 (human aldo-keto reductase 1C3) (Homo sapiens, UniProt P42330)
T1 construct: recombinant enzyme
T1 sequence (P42330 1-323): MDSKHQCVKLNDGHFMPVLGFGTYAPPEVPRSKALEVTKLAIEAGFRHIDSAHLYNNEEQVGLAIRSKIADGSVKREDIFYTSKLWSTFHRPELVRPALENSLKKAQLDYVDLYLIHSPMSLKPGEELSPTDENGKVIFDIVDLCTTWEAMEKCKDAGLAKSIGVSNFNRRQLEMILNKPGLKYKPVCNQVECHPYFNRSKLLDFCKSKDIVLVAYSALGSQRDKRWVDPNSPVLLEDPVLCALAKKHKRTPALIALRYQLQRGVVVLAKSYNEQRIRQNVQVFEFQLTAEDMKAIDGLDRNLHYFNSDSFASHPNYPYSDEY
Assay: absorbance at […] nm, Michaelis-Menten fit
Assay type: biochemical
Conditions: 0.25 mM NAD(P)H, 10 mM Tris-Cl pH 7.0, 4% DMSO

For `CS(=O)(=O)OCCN(CCBr)c1c(C(=O)NCCO)cc([N+](=O)[O-])cc1[N+](=O)[O-]` [PR-104A], the KM was “kinetic parameters calculated for each (D)NBM using the following extinction coefficients: PR-104A”.
